# Patent US20250195521A1 (Revolution Medicines, Inc., priority 2020, published 2025)
# System: NCI-H358 (K-Ras G12C)
# Assay: CellTiter-Glo cell viability assay, NCI-H358
# Type: cell-based, human
# Settings: 5-day treatment; read-out: H358 Cell Viability assay data (K-Ras G12C, IC50)
# Experimental: Determination of Cell Viability in RAS Mutant Cancer Cell Lines Protocol: CellTiter-Glo® Cell Viability Assay
# Note—The following protocol describes a procedure for monitoring cell viability of K-Ras mutant cancer cell lines in response to a compound of the invention. Other RAS isoforms may be employed, though the number of cells to be seeded will vary based on cell line used.
# Test compounds (132.5 nL) were directly dispensed into the assay plates containing cells. […] On day 5, assay plates and their contents were equilibrated to room temperature for approximately 30 minutes. […] Luminescence was measured using the PerkinElmer Enspire. Data were normalized by the following: (Sample signal/Avg. DMSO)*100. The data were fit using a four-parameter logistic fit.
row,SMILES,IC50 [µM]
1,C=CC(=O)N1CC[C@H](C(=O)N(C)[C@H](C(=O)N[C@H]2Cc3cc(O)cc(c3)-c3ccc4c(c3)c(c(-c3cccnc3)n4C(C)(C)C#N)CC(C)(C)COC(=O)[C@@H]3CCCN(N3)C2=O)C(C)C)C1 [Compound A74],0.01 to 0.1
2,C=CC(=O)N1CC[C@H](C(=O)N(C)[C@H](C(=O)N[C@H]2Cc3cc(O)cc(c3)-c3ccc4c(c3)c(c(-c3cnccc3[C@H](C)OC)n4CC)CC(C)(C)COC(=O)[C@@H]3CCCN(N3)C2=O)C(C)C)C1 [Compound A112],< 0.01
3,C=CC(=O)N1CC[C@H](C(=O)N(C)[C@H](C(=O)N[C@H]2Cc3cccc(c3)-c3ccc4c(c3)c(c(-c3cnccc3[C@H](C)OC)n4CC)CC(C)(C)COC(=O)[C@@H]3CCCN(N3)C2=O)C(C)C)C1 [Compound A122],> 10

# Same assay, conditions: Homo sapiens, NCI-H358, 120 h, 5-day treatment; read-out: H358 Cell Viability assay data (K-Ras G12C, IC50)
row,SMILES,IC50 [µM]
1,CCn1c(-c2cccnc2COC)c2c3cc(ccc31)-c1cc(O)cc(c1)C[C@H](NC(=O)[C@H](C(C)C)N(C)C(=O)[C@H]1CCN(C(=O)/C=C/CN3CCN(C)CC3)C1)C(=O)N1CCC[C@H](N1)C(=O)OCC(C)(C)C2 [Compound A72],> 10
2,C=CC(=O)N1CC[C@H](C(=O)N(C)[C@H](C(=O)N[C@H]2Cc3cc(O)cc(c3)-c3ccc4c(c3)c(c(-c3cnccc3[C@H](C)OC)n4CC)CC(C)(C)COC(=O)[C@@H]3CCCN(N3)C2=O)C(C)C)C1 [Compound A76],< 0.01
3,CCn1c(-c2ccccc2COC)c2c3cc(ccc31)-c1cc(O)cc(c1)C[C@H](NC(=O)[C@H](C(C)C)N(C)C(=O)[C@H]1CCN(C(=O)/C=C/CN(C)C)C1)C(=O)N1CCC[C@H](N1)C(=O)OCC(C)(C)C2 [Compound A79],0.01 to 0.1
4,CCn1c(-c2cnccc2COC)c2c3cc(ccc31)-c1cc(O)cc(c1)C[C@H](NC(=O)[C@H](C(C)C)N(C)C(=O)C1CCN(C)CC1)C(=O)N1CCC[C@H](N1)C(=O)OCC(C)(C)C2 [Compound A84],0.1 to 1
5,CCn1c(-c2ccccc2CN(C)C)c2c3cc(ccc31)-c1cc(O)cc(c1)C[C@H](NC(=O)[C@H](C(C)C)N(C)C(=O)c1nc(NC(=O)/C=C/CN(C)C)cs1)C(=O)N1CCC[C@H](N1)C(=O)OCC(C)(C)C2 [Compound A90],> 10
6,CCn1c(-c2cccnc2[C@H](C)OC)c2c3cc(ccc31)-c1cccc(c1)C[C@H](NC(=O)[C@H](C(C)C)N(C)C(=O)[C@H]1CCN(C(=O)CN(C)C)C1)C(=O)N1CCC[C@H](N1)C(=O)OCC(C)(C)C2 [Compound A96],< 0.01
7,C=CC(=O)N1CC[C@H](C(=O)N(C)[C@H](C(=O)N[C@H]2Cc3cc(O)cc(c3)-c3cc4c(c(-c5ccccc5CCOC)n(CC)c4cn3)CC(C)(C)COC(=O)[C@@H]3CCCN(N3)C2=O)C(C)C)C1 [Compound A102],> 10
8,C=CC(=O)N1CCN(C(=O)N(C)[C@H](C(=O)N[C@H]2Cc3cc(O)cc(c3)-c3ccc4c(c3)c(c(-c3ccccc3CCOC)n4CC)CC(C)(C)COC(=O)[C@@H]3CCCN(N3)C2=O)C(C)C)C[C@@H]1COC [Compound A125],> 10
9,CCn1c(-c2ccccc2CN(C)C)c2c3cc(ccc31)-c1cc(O)cc(c1)C[C@H](NC(=O)[C@@H](C(C)C)N(C)C(=O)c1ncc(NC(=O)/C=C/CN(C)C)n1C)C(=O)N1CCC[C@H](N1)C(=O)OCC(C)(C)C2 [Compound A126],> 10
10,CCn1c(-c2cnccc2[C@H](C)OC)c2c3cc(ccc31)-c1cccc(c1)C[C@H](NC(=O)[C@H](C1CCCC1)N(C)C(=O)[C@H]1CCN(C(=O)C#CCN(C)C)C1)C(=O)N1CCC[C@H](N1)C(=O)OCC(C)(C)C2 [Compound A133],< 0.01
11,C=CC(=O)N1CC[C@H](C(=O)N(C)[C@H](C(=O)N[C@H]2Cc3cc(ccn3)-c3ccc4c(c3)c(c(-c3cccnc3COC)n4CC)CC(C)(C)COC(=O)[C@@H]3CCCN(N3)C2=O)C(C)C)C1 [Compound A136],> 10
12,C=CC(=O)N1CC[C@H](C(=O)N(C)[C@H](C(=O)N[C@H]2Cc3cc(O)cc(c3)-c3ccc4c(c3)c(c(-c3cc(CN(C)C)cnc3COC)n4CC)CC(C)(C)COC(=O)[C@@H]3CCCN(N3)C2=O)C(C)C)C1 [Compound A149],0.01 to 0.1
13,C=CC(=O)N1CC[C@H](C(=O)N(C)[C@H](C(=O)N[C@H]2Cc3cc(O)cc(c3)-c3ccc4c(c3)c(c(-c3cccnc3)n4C3CC3)CC(C)(C)COC(=O)[C@@H]3CCCN(N3)C2=O)C(C)C)C1 [Compound A160],0.1 to 1
14,C=CC(=O)N1CC(NC[C@H](C(=O)N[C@H]2Cc3cc(O)cc(c3)-c3ccc4c(c3)c(c(-c3cccnc3COC)n4CC)CC(C)(C)COC(=O)[C@@H]3CCCN(N3)C2=O)C(C)C)C1 [Compound A174],> 10
15,C/C=C(\C#N)C(=O)N1CC[C@H](C(=O)N(C)[C@H](C(=O)N[C@H]2Cc3cc(O)cc(c3)-c3ccc4c(c3)c(c(-c3cccnc3COC)n4CC)CC(C)(C)COC(=O)[C@@H]3CCCN(N3)C2=O)C(C)C)C1 [Compound A178],> 10
16,C=CC(=O)N1CC[C@@H](C(=O)N(C)[C@H](C(=O)N[C@H]2Cc3cc(O)cc(c3)-c3ccc4c(c3)c(c(-c3cncnc3)n4CC)CC(C)(C)COC(=O)[C@@H]3CCCN(N3)C2=O)C(C)C)O1 [Compound A179],> 10

row,SMILES,IC50 [µM]
1,C=CC(=O)N1CC[C@H](C(=O)N(C)[C@H](C(=O)N[C@H]2Cc3cc(O)cc(c3)-c3ccc4c(c3)c(c(-c3cncnc3)n4CC)CC(C)(C)COC(=O)[C@@H]3CCCN(N3)C2=O)C(C)C)O1 [Compound A180],> 10
2,CCn1c(-c2cccnc2[C@H](C)OC)c2c3cc(ccc31)-c1cc(O)cc(c1)C[C@H](NC(=O)[C@H](C(C)C)N(C)C(=O)[C@H]1CCN(C(=O)C#CCN3CCOCC3)C1)C(=O)N1CCC[C@H](N1)C(=O)OCC(C)(C)C2 [Compound A182],< 0.01
3,COCc1ncccc1-c1nc2ccc3cc2n1CC(C)(C)COC(=O)[C@@H]1CCCN(N1)C(=O)[C@@H](NC(=O)[C@H](C(C)C)N(C)C(=O)[C@H]1CCN(C(=O)C#CCN2CCOCC2)C1)Cc1cc(O)cc-3c1 [Compound A188],> 10
4,CCn1c(-c2cccnc2COC)c2c3cc(ccc31)-c1cc(O)cc(c1)C[C@H](NC(=O)[C@H](C(C)C)N(C)C(=O)[C@H]1CCN(C(=O)C#CCN3CCN(C)CC3)C1)C(=O)N1CCC[C@H](N1)C(=O)OCC(C)(C)C2 [Compound A189],> 10
5,CCn1c(-c2cncnc2)c2c3cc(ccc31)-c1cccc(c1)[C@@H](OC)[C@H](NC(=O)[C@H](C(C)C)N(C)C(=O)[C@H]1CCN(C(=O)C#CCN3CCOCC3)C1)C(=O)N1CCC[C@H](N1)C(=O)OCC(C)(C)C2 [Compound A208],> 10
6,CCn1c(-c2ccccc2CN(C)C)c2c3cc(ccc31)-c1cc(O)cc(c1)C[C@H](NC(=O)[C@H](C(C)C)N(C)Cc1ccc(NC(=O)/C=C/CN(C)C)cn1)C(=O)N1CCC[C@H](N1)C(=O)OCC(C)(C)C2 [Compound A213],> 10
7,CCn1c(-c2ccccc2CCOC)c2c3cc(ccc31)-c1cc(O)cc(c1)C[C@H](NC(=O)[C@H](C(C)C)N(C)C(=O)c1ccc(NC(=O)/C=C/CN(C)C)nc1)C(=O)N1CCC[C@H](N1)C(=O)OCC(C)(C)C2 [Compound A218],> 10
8,CCn1c(-c2ccccc2CCOC)c2c3cc(ccc31)-c1cc(O)cc(c1)C[C@H](NC(=O)[C@H](C(C)C)N(C)C(=O)c1ccc(NC(=O)/C=C/CN(C)C)cn1)C(=O)N1CCC[C@H](N1)C(=O)OCC(C)(C)C2 [Compound A224],> 10
9,C=CC(=O)N1CC[C@H](C(=O)Nc2ccccc2C(=O)N[C@H]2Cc3cc(O)cc(c3)-c3ccc4c(c3)c(c(-c3cnccc3COC)n4CC)CC(C)(C)COC(=O)[C@@H]3CCCN(N3)C2=O)C1 [Compound A229],> 10
10,C=CC(=O)N1CC[C@H](C(=O)N(C)[C@H](C(=O)N(C)[C@H]2Cc3cc(O)cc(c3)-c3ccc4c(c3)c(c(-c3cccnc3COC)n4CC)CC(C)(C)COC(=O)[C@@H]3CCCN(N3)C2=O)C(C)C)C1 [Compound A230],> 10
11,C=CC(=O)N1CC[C@H](C(=O)N(C)[C@H](C(=O)N[C@H]2Cc3cc(OC4O[C@H](CO)[C@@H](O)[C@H](O)[C@H]4O)cc(c3)-c3ccc4c(c3)c(c(-c3cccnc3COC)n4CC)CC(C)(C)COC(=O)[C@@H]3CCCN(N3)C2=O)C(C)C)C1 (stereo partly drawn) [Compound A234],> 10
12,C=CC(=O)N1CC[C@H](C(=O)N(C)[C@H](C(=O)N[C@H]2CN(C)C(=O)Cc3ccc4c(c3)c(c(-c3cccnc3COC)n4CC)CC(C)(C)COC(=O)[C@@H]3CCCN(N3)C2=O)C(C)C)C1 [Compound A239],> 10
13,C=CC(=O)N1CC[C@H](C(=O)N(C)[C@H](C(=O)N[C@H]2C[C@H]3CN(CCO3)c3ccc4c(c3)c(c(-c3cccnc3COC)n4CC)CC(C)(C)COC(=O)[C@@H]3CCCN(N3)C2=O)C(C)C)C1 [Compound A240],> 10
14,C=CC(=O)N1CC[C@H](C(=O)N(C)[C@H](C(=O)N[C@H]2Cc3cc(O)cc(c3)-c3ccc4nc(-c5cccnc5[C@H](C)OC)n(c4c3)CC(C)(C)COC(=O)[C@@H]3CCCN(N3)C2=O)C(C)C)C1 [Compound A242],> 10
15,C=CC(=O)N1CC[C@H](C(=O)N(C)[C@H](C(=O)N[C@H]2Cc3cc(O)cc(c3)-c3ccc4nc(-c5cccnc5COC)c(n4c3)CC(C)(C)COC(=O)[C@@H]3CCCN(N3)C2=O)C(C)C)C1 [Compound A243],> 10

# Same assay, conditions: Homo sapiens, NCI-H358, 120 h, read-out: H358 Cell Viability assay data (K-Ras G12C, IC50, uM), 5-day treatment
row,SMILES,IC50 [µM]
1,C=CC(=O)N1CC[C@H](C(=O)N(C)[C@H](C(=O)N[C@H]2Cc3cc(O)cc(c3)-c3ccc4c(c3)c(c(-c3cc(C)cnc3[C@H](C)OC)n4CC)CC(C)(C)COC(=O)[C@@H]3CCCN(N3)C2=O)C(C)C)C1 [Compound A167],< 0.01

# Same assay, conditions: read-out: H358 Cell Viability assay data (K-Ras G12C, IC50); 5-day treatment
row,SMILES,IC50 [µM]
1,CC#CC(=O)N1CC[C@H](C(=O)N(C)[C@@H](C(=O)N[C@H]2Cc3cc(O)cc(c3)-c3ccc4c(c3)c(c(-c3cccnc3[C@H](C)OC)n4CC)CC(C)(C)COC(=O)[C@@H]3CCCN(N3)C2=O)C(C)C)C1 [Compound A198],> 10
